Experimental findings from US4877779A, “2-aminomethylalkynylalkyl-1,3-dithiane derivatives” (priority 1988, dated 1989) are described below.

Structures can show the parent of a compound that is named as a salt.

Broadly, the Kb is the affinity of an antagonist, worked out from how it opposes an agonist.

T1 sequence (O35505 whole entry): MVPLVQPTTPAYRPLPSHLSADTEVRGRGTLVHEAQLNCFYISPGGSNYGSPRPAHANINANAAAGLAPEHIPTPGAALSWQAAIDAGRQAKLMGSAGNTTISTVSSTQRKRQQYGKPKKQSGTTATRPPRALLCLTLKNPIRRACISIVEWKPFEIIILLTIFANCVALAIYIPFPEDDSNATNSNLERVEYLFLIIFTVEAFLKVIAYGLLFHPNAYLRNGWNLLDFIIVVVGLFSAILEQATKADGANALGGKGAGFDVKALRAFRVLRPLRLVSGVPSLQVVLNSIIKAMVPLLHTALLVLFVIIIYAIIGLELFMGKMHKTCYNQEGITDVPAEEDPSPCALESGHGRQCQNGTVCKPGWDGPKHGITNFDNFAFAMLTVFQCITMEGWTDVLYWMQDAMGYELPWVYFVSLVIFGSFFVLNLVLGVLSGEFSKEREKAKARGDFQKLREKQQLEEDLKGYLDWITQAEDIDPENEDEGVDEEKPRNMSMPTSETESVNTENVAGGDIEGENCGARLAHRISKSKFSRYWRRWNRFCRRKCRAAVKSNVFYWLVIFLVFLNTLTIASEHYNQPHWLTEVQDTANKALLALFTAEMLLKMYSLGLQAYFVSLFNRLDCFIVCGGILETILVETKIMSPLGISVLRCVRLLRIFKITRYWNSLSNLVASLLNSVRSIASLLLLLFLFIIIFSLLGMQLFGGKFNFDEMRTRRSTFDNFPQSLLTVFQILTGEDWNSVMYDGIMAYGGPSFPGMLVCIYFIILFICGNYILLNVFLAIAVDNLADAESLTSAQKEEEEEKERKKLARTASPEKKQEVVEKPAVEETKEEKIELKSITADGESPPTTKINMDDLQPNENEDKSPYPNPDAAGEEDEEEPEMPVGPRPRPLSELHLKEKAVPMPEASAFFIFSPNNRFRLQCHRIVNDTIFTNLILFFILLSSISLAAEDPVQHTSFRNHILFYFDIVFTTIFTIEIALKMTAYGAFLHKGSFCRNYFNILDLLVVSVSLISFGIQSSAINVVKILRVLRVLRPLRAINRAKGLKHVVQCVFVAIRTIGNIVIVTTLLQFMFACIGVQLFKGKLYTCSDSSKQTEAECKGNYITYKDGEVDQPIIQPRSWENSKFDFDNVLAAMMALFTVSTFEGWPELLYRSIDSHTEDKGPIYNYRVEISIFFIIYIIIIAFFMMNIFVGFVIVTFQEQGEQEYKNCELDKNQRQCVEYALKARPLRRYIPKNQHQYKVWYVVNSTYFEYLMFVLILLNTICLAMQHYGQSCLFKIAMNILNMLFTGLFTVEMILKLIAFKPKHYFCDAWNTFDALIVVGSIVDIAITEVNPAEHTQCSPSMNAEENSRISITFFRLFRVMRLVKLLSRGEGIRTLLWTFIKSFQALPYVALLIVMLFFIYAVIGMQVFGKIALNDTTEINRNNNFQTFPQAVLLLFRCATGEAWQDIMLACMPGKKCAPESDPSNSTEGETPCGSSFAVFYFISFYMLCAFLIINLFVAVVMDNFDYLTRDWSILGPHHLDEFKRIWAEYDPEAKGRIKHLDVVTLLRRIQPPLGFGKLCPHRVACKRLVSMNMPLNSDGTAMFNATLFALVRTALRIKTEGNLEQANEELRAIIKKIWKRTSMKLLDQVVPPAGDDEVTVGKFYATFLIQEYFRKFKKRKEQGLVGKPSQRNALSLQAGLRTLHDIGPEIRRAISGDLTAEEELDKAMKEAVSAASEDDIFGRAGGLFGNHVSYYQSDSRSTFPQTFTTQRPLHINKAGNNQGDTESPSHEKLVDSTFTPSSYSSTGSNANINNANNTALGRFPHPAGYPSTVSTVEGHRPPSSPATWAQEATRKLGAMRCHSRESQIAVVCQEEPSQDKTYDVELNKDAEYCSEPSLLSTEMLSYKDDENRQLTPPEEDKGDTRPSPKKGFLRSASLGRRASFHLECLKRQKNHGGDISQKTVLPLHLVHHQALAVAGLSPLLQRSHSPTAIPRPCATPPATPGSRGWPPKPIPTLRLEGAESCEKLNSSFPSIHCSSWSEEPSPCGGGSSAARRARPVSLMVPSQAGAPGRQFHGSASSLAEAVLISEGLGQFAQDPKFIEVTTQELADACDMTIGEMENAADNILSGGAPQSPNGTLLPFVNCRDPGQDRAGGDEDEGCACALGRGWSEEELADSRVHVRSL

One experiment addresses T1, calcium channel (guinea-pig isolated ileal longitudinal smooth muscle) (Cavia porcellus, UniProt O35505).
T1 construct: The longitudinal smooth muscle is carefully separated from the underlying circular muscle layer; from tissue; host or cells: guinea-pig ileal longitudinal smooth muscle
Description: Calcium Channel Antagonist Activity in Guinea-Pig Isolated Ileal Smooth Muscle. The experiment is classed as cell-based.
Details: not given
The text has this:
Calcium Channel Antagonist Activity in Guinea-Pig Isolated Ileal Smooth Muscle.
Male albino guinea-pigs are sacrificed by stunning and exsanguination. The abdominal cavity is opened and the small intestine is removed, with about 10 cm of the terminal ileum being discarded. The tissue is placed in a dish containing Tyrode's solution (composition, mM: […]; KCl 2.68; NaHCO3 11.90; NaH2 PO4 0.36; MgCl2 0.98; CaCl2 1.77; dextrose 5.55), and cut into three to four segments. A glass rod (6 mm diameter) is carefully inserted into the lumen of each segment, and excess connective tissue or fat is removed. The longitudinal smooth muscle is carefully separated from the underlying circular muscle layer by gently stroking a moist cotton swab on a tangent to shallow, longitudinal incisions made parallel to the mesenteric attachment. Using gentle traction, and taking care to keep the segment moist at all times, the preparation is stripped from the remaining length of the ileal segment (Paton & Zar, J. Physiol. 194, 13; 1968).
Each preparation is suspended in a 10 mL jacketed glass tissue bath containing Tyrode's solution maintained at 37° C. and gassed with 5% CO2 in O2. The preparation is attached by silk thread to a force-displacement transducer. […] The initial resting tension is adjusted to 0.5 g and the preparation equilibrated for 55 minutes prior to experimentation. At the end of this period, the bathing solution is replaced with Ca^2+ -free Tyrode's solution. This solution is prepared by omitting CaCl2. The preparation is washed four times in Ca^2+ -free Tyrode 's to remove any Ca^2+ remaining in the bath, and allowed to equilibrate for a further 20 minutes.
Concentration-response curves to CaCl2 are obtained using the following procedure. Preparations are exposed to a depolarizing concentration of KCl (80 mM) for 6 minutes. At the end of this period CaCl2 is added to the bath cumulatively in the concentration range 0.2-8.0 mM. Successive additions of each Ca^2+ concentration are carried out only when the previous response has reached a plateau. When the maximum response has been attained the bath is again washed (five times) with Ca^2+ -free buffer, and the preparation re-equilibrated for approximately 15 minutes. A second Ca^2+ concentration-response curve is then obtained in the same manner. This second curve serves as control for that tissue.
Further curves are obtained in the presence of increasing concentrations of the test drugs. Where appropriate, the test drug is added to the bath immediately following addition of KCl, and 6 minutes later the concentration-response curve to Ca^2+ is obtained. Each test preparation is exposed to three different concentrations of a test drug.
For each ileal preparation, the control EC50 for Ca^2+ (the concentration producing 50% of the maximum response) is determined from the control concentration-response curve. Calcium blocking activity is defined as a Kb value (the concentration producing a two-fold dextral shift in the control curve), calculated from EC50 ratios in the absence and presence of test drugs.
On to `CCN(C)CC#CCCC1(C2(O)c3ccccc3-c3ccccc32)SCCCS1` [2-(5-Ethylmethylaminopent-3-ynyl)-2-(9-hydroxy-9H-fluoren-9-yl)-1,3-dithiane], for which the Kb worked out at 1230 ± 470 nM.

Staying with this experiment, now noted: Kb = concentration producing a two-fold dextral shift in the control CaCl2 concentration-response curve; KCl (80 mM) depolarized ileal smooth muscle; read-out: Calcium antagonist Kb.
Regarding `COc1ccc(CCN(C)CC#CCCC2SCCCS2)cc1OC` [2-[5-[2-(3,4-Dimethoxyphenyl)ethyl]methylaminopent-3-ynyl]-1,3-dithiane Oxalate], the Kb came out at 2220 ± 70 nM.

For the compound `CN(C)CC#CCCC1(C2(O)c3ccccc3-c3ccccc32)SCCCS1` [2-(5-Dimethylaminopent-3-ynyl)-2-(9-hydroxy-9H-fluoren-9-yl)-1,3-dithiane], the Kb was 1810 ± 390 nM. As for `CCCN(CC#CCCCC1(C2(O)c3ccccc3Oc3ccccc32)SCCCS1)CCC` [2-(6-Dipropylaminohex-4-ynyl)-2-(9-hydroxy-9H-xanthen-9-yl)-1,3-dithiane], the Kb came out at 470 ± 150 nM. Same read-out and setting: to `CN(CC#CCCC1(C2(O)c3ccccc3Oc3ccccc32)SCCCS1)CCCc1ccccc1` [2-[5-(3-Phenylpropyl)methylaminopent-3-ynyl]-2-(9-hydroxy-9H-xanthen-9-yl)-1,3-dithiane] belongs 3090 ± 990 nM; to `CN(CC#CCCC(O)(c1ccccc1)C1SCCCS1)CCc1ccccc1` (stereo not shown) [2-[6-(2-phenylethyl)methylamino-1-hydroxy-1-phenyl-hex-4-ynyl]-1,3-dithiane oxalate hemihydrate], 2250 ± 530 nM; to `CN(CC#CCCC1(C2(O)c3ccccc3Sc3ccccc32)SCCCS1)CCCc1ccccc1` [2-[5-(3-Phenylpropyl)methylaminopent-3-ynyl]-2-(9-hydroxy-9H-thioxanthen-9-yl)-1,3-dithiane], 4160 ± 860 nM. The same measure, in the same setting: as for `CCN(CC)CC#CCCC1(C(O)(c2ccccc2)C2CCCCC2)SCCCS1` (stereo not drawn) [2-(5-Diethylaminopent-3-ynyl)-2-(α-cyclohexyl-α-hydroxybenzyl)-1,3-dithiane Hemioxalate], the figure is 1140 ± 21 nM. Still for that read-out and setting: to `CCCN(CC#CCC1(c2ccccc2)SCCCS1)CCC` [2-(4-Dipropylaminobut-2-ynyl)-2-phenyl-1,3-dithiane, Oxalate] belongs 1010 ± 150 nM; to `CN(CC#CCCC1SCCCS1)Cc1cccc2ccccc12` [2-[5-(1-Naphthylmethyl)methylaminopent-3-ynyl]-1,3-dithiane Oxalate], above 10000 nM. Turning to `CCN(CC)CC#CCCC1(c2ccccc2)SCCCS1` [2-(5-Diethylaminopent-3-ynyl)-2-phenyl-1,3-dithiane Oxalate], the Kb was found to be 900 ± 300 nM.

As for `CCN(CC)CC#CCCCC1SCCCS1` [2-(6-Diethylaminohex-4-ynyl)-1,3-dithiane Oxalate], the antagonist dissociation constant (Kb) was above 10000 nM. As for `CN(CC#CCCC1(C(O)(c2ccccc2)c2ccccc2)SCCCS1)Cc1ccccc1` [2-[5-(Benzylmethylaminopent-3-ynyl]-2-(α-hydroxy-α-phenylbenzyl)-1,3-dithiane Oxalate Hemihydrate], the Kb worked out at 3170 ± 760 nM. Same read-out and setting: to `CN1CCN(CC#CCCC2SCCCS2)CC1` [2-[5-(4-Methylpiperazinyl)pent-3-ynyl]-1,3-dithiane Dioxalate] belongs above 10000 nM; to `CCCN(CC#CCCCC1(C2(O)c3ccccc3Sc3ccccc32)SCCCS1)CCC` [2-(6-Dipropylaminohex-4-ynyl)-2-(9-hydroxy-9H-thioxanthen-9-yl)-1,3-dithiane], 770 nM; to `CCN(CC)CC#CCCC1(C2(O)CCOc3ccccc32)SCCCS1` (stereo not shown) [2(5-Diethylaminopent-3-ynyl)-2-(4-hydroxy-4H-chromanyl)-1,3-dithiane], 1940 ± 210 nM. For the compound `CN(CC#CCCC1SCCCS1)CCCCc1ccccc1` [2-[5-(4-Phenylbutyl)methylaminopent-3-ynyl]-1,3-dithiane Oxalate], the Kb was found to be 3430 ± 830 nM. The same measure, in the same setting: as for `CN(CC#CCCC1(C(O)(c2ccccc2)c2ccccc2)SCCCS1)CCCc1ccccc1` [2-[5-(3-Phenylpropyl)methylaminopent-3-ynyl]-2-(9-hydroxy-9-phenylbenzyl)-1,3-dithiane Oxalate], the figure is 1630 ± 880 nM; as for `COc1ccc(CCN(C)CC#CCC2(c3ccccc3)SCCCS2)cc1OC` [2-[4-[2-(3,4-dimethoxyphenyl)ethyl]methylaminobut-2-ynyl]-2-phenyl-1,3-dithiane oxalate], 1170 ± 350 nM. Still for that read-out and setting: to `CCN(CC)CC#CCCC1(C2(O)CCCc3ccccc32)SCCCS1` (stereo not shown) [2-(5-Diethylaminopent-3-ynyl)-2-(1-hydroxy-1,2,3,4-tetrahydro-1-naphthyl)-1,3-dithiane Hemioxalate] belongs 830 ± 20 nM; to `CCN(CC)CC#CCCCC1(C2(O)c3ccccc3-c3ccccc32)SCCCS1` [2-(6-Diethylaminohex-4-ynyl)-2-(9-hydroxy-9H-fluoren-9-yl)-1,3-dithiane], 810 ± 220 nM.

As for `CCN(C)CC#CCCC1SCCCS1` [2-(5-Ethylmethylaminopent-3-ynyl)-1,3-dithiane Oxalate], the Kb was above 10000 nM. Still for that read-out and setting: as for `CN(CC#CCCC1SCCCS1)CCCc1ccccc1` [2-[5-(3-Phenylpropyl)methylaminopent-3-ynyl]-1,3-dithiane Oxalate], the figure is 2980 ± 590 nM; as for `CCN(CC)CC#CCCC1(C2(O)c3ccccc3C=Cc3ccccc32)SCCCS1` [2-(5-Diethylaminopent-3-ynyl)-2-(5-hydroxy-5H-dibenzo[a,d]cyclohepten-5-yl)-1,3-dithiane Oxalate], 300 nM.

Consider `CN(CC#CCCC1(C(O)(c2ccccc2)c2ccccc2)SCCCS1)CCc1ccccc1` [2-[5-(2-Phenylethyl)methylaminopent-3-ynyl]-2-(α-hydroxy-α-phenylbenzyl)-1,3-dithiane Oxalate Hemihydrate], for which the Kb came out at 2650 ± 1210 nM. Same read-out and setting: to `CN(CC#CCCCC1SCCCS1)CCc1ccccc1` [2-[6-(2-Phenylethyl)methylaminohex-4-ynyl]-1,3-dithiane Oxalate] belongs 4180 ± 1540 nM; to `CCN(CC)CC#CCCC1(Cc2ccccc2)SCCCS1` [2-(5-Diethylaminopent-3-ynyl)-2-benzyl-1,3-dithiane Oxalate], 1960 ± 400 nM.

Take `COc1ccc(CCN(C)CC#CCCC(O[Si](C)(C)C)(c2ccccc2)C2SCCCS2)cc1OC` (stereo not shown) [2-[6-[2-(3,4-Dimethoxyphenyl)ethyl]methylamino-1-phenyl-1-trimethylsilyloxyhex-4-ynyl]-1,3-dithiane]: the Kb came out at 570 ± 30 nM. On the same count and under the same terms, as for `CN(C)CC#CCCC1SCCCS1` [2-(5-Dimethylaminopent-3-ynyl)-1,3-dithiane Oxalate], the figure is above 10000 nM; as for `CCN(C)CC#CCCC1(C2(O)c3ccccc3Sc3ccccc32)SCCCS1` [2-(5-Ethylmethylaminopent-3-ynyl)-2-(9-hydroxy-9H-thioxanthen-9-yl)-1,3-dithiane], 570 ± 120 nM; as for `CCN(CC)CC#CCCCC1(C2(O)c3ccccc3Oc3ccccc32)SCCCS1` [2-(6-Diethylaminohex-4-ynyl)-2-(9-hydroxy-9H-xanthen-9-yl)-1,3-dithiane], 170 ± 20 nM. On the same count and under the same terms, as for `CCN(C)CC#CCCC1(C2(O)c3ccccc3Oc3ccccc32)SCCCS1` [2-(5-Ethylmethylaminopent-3-ynyl)-2-(9-hydroxy-9H-xanthen-9-yl)-1,3-dithiane], the figure is 1510 ± 530 nM. Still for that read-out and setting: to `CN(CC#CCCC1(C(O)(c2ccccc2)C2CCCCC2)SCCCS1)CCc1ccccc1` (stereo not drawn) [2-[5-(2-Phenylethyl)methylaminopent-3-ynyl]-2-(α-cyclohexyl-α-hydroxybenzyl)-1,3-dithiane Oxalate] belongs 3750 ± 1250 nM; to `OC1(C2(CCC#CCN3CCCCC3)SCCCS2)c2ccccc2Oc2ccccc21` [2-(5-Piperidinylpent-3-ynyl)-2-(9-hydroxy-9H-xanthen-9-yl)-1,3-dithiane], 399 ± 40 nM.
